Test results taken from PubChem BioAssay AID2055 (NMMLSC, 2009).

Target: Ras-related C3 botulinum toxin substrate 1 (Homo sapiens) (UniProt P63000)
Test: Rac1 wildtype GTP binding inhibitors, SAR follow-up, biochemical, pyrazoline analogs, multiplex, flow cytometry, Ki (AID 2055)
Details: Rac1-GST beads, Bodipy-FL-GTP binding, Ki calculated from EC50

Structure (SMILES) | Ki
O=C(O)c1ccc(N2N=C(c3ccccc3)CC2c2ccccc2)cc1 (stereo unspecified) | 5.11 µM
CC(=O)Oc1ccc(C2=NN(c3ccccc3)C(c3ccccc3)C2)cc1 (stereo unspecified) | 0.53 µM
CN(C)c1ccc(C2CC(c3ccccc3)=NN2c2ccc([N+](=O)[O-])cc2)cc1 (stereo unspecified) | 1.9 µM
COc1ccc(C2CC(c3ccc(F)cc3)=NN2c2cc(Cl)ccc2Cl)cc1 (stereo unspecified) | 0.01 µM
Brc1ccc(N2N=C(c3ccccc3)CC2c2ccccc2)cc1 (stereo unspecified) | 0.89 µM
COc1ccc(C2CC(c3ccccc3)=NN2c2ccc(S(N)(=O)=O)cc2)cc1OC (stereo unspecified) | 1.24 µM
